Measured values taken from patent publication US5500410A, “Substituted alkylamide derivatives of teicoplanin” (Gruppo Lepetit S.p.A., priority 1989, dated 1996).

Experiments:
[1] = test system: Pseudomonas aeruginosa ATCC 10145; assay: In vitro MIC, two-fold dilution in microtiter; type: cell-based; conditions: 18-24 h at 37° C., inoculum about 10^4 CFU/ml
Procedure: (§1) Broth cultures are diluted enough so that the final inecuium is about 10^4 colony forming units/ml (CFU/ml).

[2] = test system: Streptococcus pneumoniae UC 41; assay: In vitro MIC, two-fold dilution in microtiter; type: cell-based; conditions: 18-24 h at 37° C., inoculum about 10^4 CFU/ml
Procedure: as §1

[3] = test system: Escherichia coli SKF 12140; assay: In vitro MIC, two-fold dilution in microtiter; type: cell-based; conditions: 18-24 h at 37° C., inoculum about 10^4 CFU/ml
Procedure: as §1

[4] = test system: Staphylococcus aureus TOUR; assay: In vitro MIC, two-fold dilution in microtiter; type: cell-based; conditions: 18-24 h at 37° C., inoculum about 10^4 CFU/ml
Procedure: as §1

[5] = test system: Staphylococcus epidermidis ATCC 12228; assay: In vitro MIC, two-fold dilution in microtiter; type: cell-based; conditions: 18-24 h at 37° C., inoculum about 10^4 CFU/ml
Procedure: as §1

[6] = test system: Staphylococcus haemolyticus L 602; assay: In vitro MIC, two-fold dilution in microtiter; type: cell-based; conditions: 18-24 h at 37° C., inoculum about 10^4 CFU/ml
Procedure: as §1

[7] = test system: Streptococcus pyogenes C 203; assay: In vitro MIC, two-fold dilution in microtiter; type: cell-based; conditions: 18-24 h at 37° C., inoculum about 10^4 CFU/ml
Procedure: as §1

[8] = test system: Proteus vulgaris X19H ATCC 881; assay: In vitro MIC, two-fold dilution in microtiter; type: cell-based; conditions: 18-24 h at 37° C., inoculum about 10^4 CFU/ml
Procedure: as §1

[9] = test system: Streptococcus faecalis ATCC 7080; assay: In vitro MIC, two-fold dilution in microtiter; type: cell-based; conditions: 18-24 h at 37° C., inoculum about 10^4 CFU/ml
Procedure: as §1

[10] = test system: Strep. pyogenes C 203; assay: In vivo test in mice septicemically infected with Strep. pyogenes C 203; conditions: Strep. pyogenes C 203 septicemia
Excerpt: The ED50 values (mg/kg) of representative compounds of the invention in in vivo tests in mice septicemically infected with Strep. pyogenes. C 203, obtained according to the procedure described by V. Arioli et al. (Journal of Antibiotics 29, 511; 1976) are given in table III.

[11] = test system: Pseudomonas aeruginosa Strain No. L 1533; assay: MIC against multi-resistant clinical isolates of Pseudomonas aeruginosa; type: cell-based; conditions: multi-resistant clinical isolate
Procedure: as §1
(§2) The activity against some multi-resistant clinical isolates of Pseudomonas aeruginosa of compounds 22, 23, 25, 26, 27 and 29 is shown in Table II.

[12] = test system: Pseudomonas aeruginosa Strain No. L 1138; assay: as above; type: cell-based; conditions: multi-resistant clinical isolate
Procedure: as §1, §2

[13] = test system: Pseudomonas aeruginosa Strain No. L 1498; assay: as above; type: cell-based; conditions: multi-resistant clinical isolate
Procedure: as §1, §2

[14] = test system: Pseudomonas aeruginosa Strain No. L 1348; assay: as above; type: cell-based; conditions: multi-resistant clinical isolate
Procedure: as §1, §2

[15] = test system: E. coli; assay: Mice septicemically infected with E. coli; type: in vivo; conditions: E. coli septicemia

| Compound | MIC Pseudomonas aeruginosa ATCC 10145 [1] [microgram/ml] | MIC Streptococcus pneumoniae UC 41 [2] [microgram/ml] | MIC Escherichia coli SKF 12140 [3] [microgram/ml] | MIC Staphylococcus aureus TOUR [4] [microgram/ml] | MIC Staphylococcus epidermidis ATCC 12228 [5] [microgram/ml] | MIC Staphylococcus haemolyticus L 602 [6] [microgram/ml] | MIC Streptococcus pyogenes C 203 [7] [microgram/ml] | MIC Proteus vulgaris X19H ATCC 881 [8] [microgram/ml] | MIC Streptococcus faecalis ATCC 7080 [9] [microgram/ml] | ED50 p.o. ([10]; p.o.) [mg/kg] | ED50 s.c. ([10]; s.c.) [mg/kg] | MIC Pseudomonas aeruginosa L 1533 [11] [microgram/ml] | MIC Pseudomonas aeruginosa L 1138 [12] [microgram/ml] | MIC Pseudomonas aeruginosa L 1498 [13] [microgram/ml] | MIC Pseudomonas aeruginosa L 1348 [14] [microgram/ml] | survivors/treated ([15]; i.v. administration, 40 mg/kg) | ED50 s.c. ([15]; s.c. administration) [mg/kg] |
| --- | --- | --- | --- | --- | --- | --- | --- | --- | --- | --- | --- | --- | --- | --- | --- | --- | --- |
| CC(=O)NC1C(OC2c3ccc(c(Cl)c3)Oc3cc4cc(c3OC3OC(CO)C(O)C(O)C3NC(=O)CCCCCCC(C)C)Oc3ccc(cc3Cl)CC3NC(=O)C(N)c5ccc(O)c(c5)Oc5cc(O)cc(c5)C(NC3=O)C(=O)NC4C(=O)NC3C(=O)NC2C(=O)NC(C(=O)NCCCNCCCCNCCCN)c2cc(O)cc(OC4OC(CO)C(O)C(O)C4O)c2-c2cc3ccc2O)OC(CO)C(O)C1O (stereo not drawn) [Compound 11] | 32 | 0.12 | 64 | 0.12 | 0.06 | 0.12 | 0.06 | 128 | 0.12 | 81.2 | 0.03 |  |  |  |  |  |  |
| NCCCNCCCNC(=O)C1NC(=O)C2NC(=O)C(NC(=O)C3NC(=O)C4NC(=O)C(Cc5ccc(c(Cl)c5)Oc5cc3cc(c5O)Oc3ccc(cc3Cl)C2O)NC(=O)C(N)c2ccc(O)c(c2)Oc2cc(O)cc4c2)c2ccc(O)c(c2)-c2c(O)cc(O)cc21 (stereo not drawn) [Compound 22] | 8 | 0.12 | 1 | 0.06 | 0.03 | 0.12 | 0.12 | 32 | 0.12 |  |  | 64 | 64 | 64 | 4 |  |  |
| NCCCNCCNCCCNC(=O)C1NC(=O)C2NC(=O)C(NC(=O)C3NC(=O)C4NC(=O)C(Cc5ccc(c(Cl)c5)Oc5cc3cc(c5O)Oc3ccc(cc3Cl)C2O)NC(=O)C(N)c2ccc(O)c(c2)Oc2cc(O)cc4c2)c2ccc(O)c(c2)-c2c(O)cc(O)cc21 (stereo not drawn) [Compound 25] | 16 | 0.12 | 2 | 0.12 | 0.06 | 0.12 | 0.06 | 64 | 0.12 |  |  | 64 | 32 | 64 | 4 |  |  |
| NCCCNCCCNCCCNC(=O)C1NC(=O)C2NC(=O)C(NC(=O)C3NC(=O)C4NC(=O)C(Cc5ccc(c(Cl)c5)Oc5cc3cc(c5O)Oc3ccc(cc3Cl)C2O)NC(=O)C(N)c2ccc(O)c(c2)Oc2cc(O)cc4c2)c2ccc(O)c(c2)-c2c(O)cc(O)cc21 (stereo not drawn) [Compound 26] | 2 | 0.12 | 0.5 | 0.06 | 0.016 | 0.06 | 0.06 | 64 | 0.25 |  |  | 64 | 32 | 64 | 4 |  |  |
| NCCCNCCCCNCCCNC(=O)C1NC(=O)C2NC(=O)C(NC(=O)C3NC(=O)C4NC(=O)C(Cc5ccc(c(Cl)c5)Oc5cc3cc(c5O)Oc3ccc(cc3Cl)C2O)NC(=O)C(N)c2ccc(O)c(c2)Oc2cc(O)cc4c2)c2ccc(O)c(c2)-c2c(O)cc(O)cc21 (stereo not drawn) [Compound 27] | 8 | 0.12 | 2 | 0.06 | 0.06 | 0.12 | 0.06 | 64 | 0.12 |  |  | 64 | 64 | 64 | 4 |  |  |
| NCCN(CCN)CCNC(=O)C1NC(=O)C2NC(=O)C(NC(=O)C3NC(=O)C4NC(=O)C(Cc5ccc(c(Cl)c5)Oc5cc3cc(c5O)Oc3ccc(cc3Cl)C2O)NC(=O)C(N)c2ccc(O)c(c2)Oc2cc(O)cc4c2)c2ccc(O)c(c2)-c2c(O)cc(O)cc21 (stereo not drawn) [Compound 29] | 8 | 0.12 | 1 | 0.06 | 0.016 | 0.06 | 0.06 | 32 | 0.12 |  |  | 128 | 64 | 64 | 8 |  |  |
| NCCCN(CCCN)CCCNC(=O)C1NC(=O)C2NC(=O)C(NC(=O)C3NC(=O)C4NC(=O)C(Cc5ccc(c(Cl)c5)Oc5cc3cc(c5O)Oc3ccc(cc3Cl)C2O)NC(=O)C(N)c2ccc(O)c(c2)Oc2cc(O)cc4c2)c2ccc(O)c(c2)-c2c(O)cc(O)cc21 (stereo not drawn) [Compound 50] | 8 | 0.12 | 1 | 0.12 | 0.008 | 0.06 | 0.06 | 128 | 0.12 |  |  |  |  |  |  | 7/8 | ≤ 38 |
